Experimental findings from patent US20040161415A1, “Antitumor and antiviral medications and method for producing the same” (Lymphotec Inc., priority 2001, published 2004) are described below.

This assay has as its system EL-4 cells (mouse-derived cancer cells). Description: Measurement of antitumor effect: survival of C57BL/6 mice after intraperitoneal injection of EL-4 cells. As to conditions: for Number of surviving mice: C57BL/6 mice with 5×10^4 EL-4 cells i.p., reserpine 200 μg/kg s.c. every four days. Type of assay: in vivo. Here is the method:
Lymphocytes were collected from the spleen of a C57BL/6 mouse by first aseptically taking out the spleen, and mashing up the spleen with a pair of tweezers in a culture dish having a culture solution containing blood serum from cattle embryo The solution including the flaked spleen was filtrated through a mesh to obtain lymphocyte suspension. The lymphocyte suspension was transferred by 50 ml to a centrifuging tube with a pipette and centrifuged at 1500 rpm for 10 minutes.
After centrifugation, supernatant fluid was removed, and a culture solution was added to obtain 2×10^6/ml of solution. The resultant solution thus obtained was transferred to a culture dish containing solid-phase anti-CD3 antibody from a mouse and further cultivated for 4 days on a continuing basis. The resultant solution was farther rinsed with phosphate buffer (occasionally abbreviated as PBS) two times, thus to prepare lymphocytes before heating treatment.
After cultivating EL-4 cells (mouse-derived cancer cells) at 37° C. in an atmosphere of 5% carbon dioxide gas in a flask for 3 days, 50 ml of culture solution containing El-4 cells were transferred to a centrifuging tube with a pipette and centrifuged at 1500 rpm for 10 minutes. After centrifugation, supernatant fluid was removed, and pH-adjusted RPMI1640 culture medium was added thereto, and brought into suspension. Then, the resultant solution thus obtained was again centrifuged at 1500 rpm for 10 minutes, and hereafter, supernatant fluid was removed. Again supernatant fluid was removed, and the pH-adjusted RPMI1640 culture medium prepared previously was added thereto, and brought into suspension. Into the abdominal cavity of each C57BL/6 mouse, 5×10^4 of EL-4 cells in the ultimate solution resultantly obtained was injected to introduce the cancer cells thereinto.
After introducing the EL-4 cells, 3×10^6 of activated lymphocytes treated with heat, which were prepared in Example 1 described above were administered intravenously with administering subcutaneously reserpine thereto. To each mouse of a subject group, reserpine was subcutaneously given by 200 μg/kg every four days together with the […] lymphocytes, and to another control group composed of twelve mice, only the reserpine was given by 200 μg/kg every four days. The reserpine of Rauwolfia serpentina extract was used in this embodiment, but it may be made from a compound extracted from Rauwolfia serpentina or other compounds. Although the reserpine solely may be used as mentioned above, but it may be used as a secondary agent with other primary additives.

In the case of `COC(=O)[C@H]1[C@H]2C[C@@H]3c4[nH]c5cc(OC)ccc5c4CCN3C[C@H]2C[C@@H](OC(=O)c2cc(OC)c(OC)c(OC)c2)[C@@H]1OC` [Resrpine, reserpine], the “Number of surviving mice” value runs as follows: (lapsed days 23) 12; (lapsed days 24) 12; (lapsed days 25) 12; (lapsed days 26) 11; (lapsed days 27) 11; (lapsed days 28) 11. Besides, the “Number of surviving mice” value runs as follows: (lapsed days 29) 9; (lapsed days 30) 8; (lapsed days 31) 8; (lapsed days 32) 6; (lapsed days 33) 6; (lapsed days 34) 4. Besides, for the setting “lapsed days 35”, the “Number of surviving mice” value was found to be 3. Further, for the setting “result in words, summary of Table 1, EL-4 bearing C57BL/6 mice”, the “antitumor effect (survival rate of mice observed with time)” value is listed as “brings about an antitumor effect”.
